According to patent US8148391B2 (Cephalon, Inc., priority 2006, dated 2012):
Where a name gives a salt, the structure may show the parent alone. Read-outs that look alike come from different tables or passages of the source. Values belong to the molecule of their own block, whether it stands above or below them.

Key:
[1] = biological target: T1, c-Met (cytoplasmic domain) (Homo sapiens, UniProt P08581); test: c-Met Kinase Assay (same methods as for ALK, with modifications); format: biochemical
T1 construct: 10 ng/mL c-Met (cytoplasmic domain, Invitrogen Corporation #PV3143); purchased Invitrogen Corporation PV3143
Method in brief: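 This plate-based kinase format uses immobilized phospholipase C-γ as substrate, phosphorylated by c-Met cytoplasmic domain (10 ng/mL) at 37° C for 15 minutes.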

[2] = biological target: T2, baculovirus-expressed ALK (Homo sapiens, UniProt Q9UM73); test: ALK Kinase Assay (ELISA-type, time-resolved fluorescence); format: biochemical
T2 construct: host or cells: baculovirus expression system
Method in brief: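 Substrate coating: phospholipase C-γ, 10 μg/mL in TBS. Kinase step: 30 ng/ml ALK, 15 min, 37° C. Detection and analysis: Eu-N1 PT66 antibody, with IC50 fitted as a sigmoidal variable-slope dose-response curve.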

[3] = c-Met kinase inhibition, 1 μM ATP (Km level), read-out: cMet Activity
[4] = ALK kinase inhibition, 1 μM ATP (Km level), read-out: ALK Activity
[5] = 1 μM ATP (Km level), 10 ng/mL c-Met, read-out: cMet Activity (c-Met kinase inhibition, IC50 class)
[6] = 1 μM ATP (Km level), 30 ng/ml ALK, 37° C., 15 minutes, read-out: ALK Activity (ALK kinase inhibition, IC50 class)
[7] = c-Met kinase inhibition, 1 μM ATP, read-out: cMet Activity
[8] = ALK kinase inhibition, 1 μM ATP, read-out: ALK Activity
[9] = 1 μM ATP (Km level), read-out: cMet Activity (c-Met Kinase Inhibition, IC50)
[10] = 1 μM ATP (Km level), read-out: ALK Activity (ALK Kinase Inhibition, IC50)

T2 sequence (Q9UM73 19-1620): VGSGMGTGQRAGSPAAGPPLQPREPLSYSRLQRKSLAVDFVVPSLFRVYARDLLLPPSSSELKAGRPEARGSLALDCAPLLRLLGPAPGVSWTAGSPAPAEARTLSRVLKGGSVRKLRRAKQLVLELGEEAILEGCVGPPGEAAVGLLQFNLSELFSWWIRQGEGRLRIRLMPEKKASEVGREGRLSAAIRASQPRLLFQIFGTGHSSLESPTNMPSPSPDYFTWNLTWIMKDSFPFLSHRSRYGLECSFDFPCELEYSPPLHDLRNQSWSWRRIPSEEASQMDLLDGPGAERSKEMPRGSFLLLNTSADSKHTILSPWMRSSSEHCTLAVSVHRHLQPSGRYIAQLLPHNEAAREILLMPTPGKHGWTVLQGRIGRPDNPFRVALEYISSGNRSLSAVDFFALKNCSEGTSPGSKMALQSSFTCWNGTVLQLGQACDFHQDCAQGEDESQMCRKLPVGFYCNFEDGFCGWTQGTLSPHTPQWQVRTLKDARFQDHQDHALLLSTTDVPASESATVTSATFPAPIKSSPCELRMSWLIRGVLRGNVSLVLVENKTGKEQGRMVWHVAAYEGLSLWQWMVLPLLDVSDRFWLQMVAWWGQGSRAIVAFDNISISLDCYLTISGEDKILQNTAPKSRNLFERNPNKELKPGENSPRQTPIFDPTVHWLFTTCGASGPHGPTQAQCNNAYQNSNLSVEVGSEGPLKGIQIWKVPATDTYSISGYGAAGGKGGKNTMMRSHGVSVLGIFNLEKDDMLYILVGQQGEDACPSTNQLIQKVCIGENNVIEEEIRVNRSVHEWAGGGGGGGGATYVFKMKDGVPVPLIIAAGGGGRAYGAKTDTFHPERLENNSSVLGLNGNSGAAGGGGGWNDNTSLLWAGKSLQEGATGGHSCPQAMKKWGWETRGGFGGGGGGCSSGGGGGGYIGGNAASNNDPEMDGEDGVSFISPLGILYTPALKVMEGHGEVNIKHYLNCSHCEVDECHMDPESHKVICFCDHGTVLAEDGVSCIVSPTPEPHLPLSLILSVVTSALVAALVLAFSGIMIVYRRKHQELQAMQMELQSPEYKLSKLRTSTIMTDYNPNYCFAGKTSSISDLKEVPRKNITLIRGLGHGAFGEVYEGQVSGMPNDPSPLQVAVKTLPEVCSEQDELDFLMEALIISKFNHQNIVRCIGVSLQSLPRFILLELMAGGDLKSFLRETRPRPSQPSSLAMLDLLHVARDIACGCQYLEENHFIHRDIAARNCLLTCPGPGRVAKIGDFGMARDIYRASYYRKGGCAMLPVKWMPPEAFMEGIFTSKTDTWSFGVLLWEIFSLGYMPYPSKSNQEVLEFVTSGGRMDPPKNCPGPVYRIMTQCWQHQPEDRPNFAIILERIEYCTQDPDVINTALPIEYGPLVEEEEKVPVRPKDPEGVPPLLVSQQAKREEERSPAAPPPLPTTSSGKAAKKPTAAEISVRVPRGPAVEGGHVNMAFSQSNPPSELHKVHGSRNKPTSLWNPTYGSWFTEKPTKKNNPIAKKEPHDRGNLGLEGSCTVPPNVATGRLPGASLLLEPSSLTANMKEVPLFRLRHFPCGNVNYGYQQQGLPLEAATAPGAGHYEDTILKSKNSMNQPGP
T1 sequence (P08581 956-1390 limits assumed): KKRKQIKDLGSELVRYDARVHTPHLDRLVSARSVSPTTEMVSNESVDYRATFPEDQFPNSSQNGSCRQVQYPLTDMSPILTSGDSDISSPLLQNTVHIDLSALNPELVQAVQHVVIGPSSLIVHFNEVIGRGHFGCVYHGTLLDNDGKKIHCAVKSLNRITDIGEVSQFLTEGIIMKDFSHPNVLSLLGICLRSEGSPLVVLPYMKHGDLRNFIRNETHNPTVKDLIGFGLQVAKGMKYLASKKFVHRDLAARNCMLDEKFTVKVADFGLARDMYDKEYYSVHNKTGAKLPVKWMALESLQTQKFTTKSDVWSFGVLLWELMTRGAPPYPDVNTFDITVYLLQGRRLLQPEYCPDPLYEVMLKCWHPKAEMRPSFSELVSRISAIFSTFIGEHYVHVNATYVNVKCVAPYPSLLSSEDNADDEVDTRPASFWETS

Molecule: CCN1C(=O)C(C)(C)CCc2c1ccc(Nc1ncc(Cl)c(NC3C4C=CC(C4)C3C(N)=O)n1)c2OC (stereo not drawn) [Example 142, (2-exo, 3-exo)-3-[5-Chloro-2-(1-ethyl-6-methoxy-3,3-dimethyl-2-oxo-2,3,4,5-tetrahydro-1H-benzo[b]azepin-7-ylamino)-pyrimidin-4-ylamino]-bicyclo[2.2.1]hept-5-ene-2-carboxylic acid amide]
- IC50 [1, 3]: > 10000 nM
- IC50 [2, 4]: < 100 nM

Molecule: CCN1C(=O)CCCc2ccc(Nc3ncc(Cl)c(Nc4ccc(OCC#N)cc4)n3)cc21 [Example 1226, {4-[5-Chloro-2-(1-ethyl-2-oxo-2,3,4,5-tetrahydro-1H-1-benzazepin-8-ylamino)-pyrimidin-4-ylamino]-phenoxy}-acetonitrile]
- IC50 [1, 5]: 1000 to 10000 nM
- IC50 [2, 6]: 100 to 1000 nM

Molecule: CCN1C(=O)CCCc2cc(Nc3ncc(Cl)c(Nc4cc(Cl)ccc4OC)n3)c(OC)cc21 [Example 137, 7-[5-Chloro-4-(5-chloro-2-methoxy-phenylamino)-pyrimidin-2-ylamino]-1-ethyl-8-methoxy-1,3,4,5-tetrahydro-benzo[b]azepin-2-one]
- IC50 [1, 3]: > 10000 nM
- IC50 [2, 4]: 100 to 1000 nM

Molecule: {2-[2-(1-Acetyl-4-oxo-1,2,3,4,5,6-hexahydro-benzo[b][1,5]diazocin-8-ylamino)-5-chloro-pyrimidin-4-ylamino]-3-methyl-phenoxy}-acetonitrile [Example 1247]
- IC50 [1, 5]: 100 to 1000 nM
- IC50 [2, 6]: < 100 nM

Molecule: COCCN1CCc2cc(Nc3ncc(Cl)c(N[C@@H]4CCCC[C@H]4NS(C)(=O)=O)n3)c(OC)cc2CC1 [Example 111, N-((1R,2R)-2-{5-Chloro-2-[8-methoxy-3-(2-methoxy-ethyl)-2,3,4,5-tetrahydro-1H-benzo[d]azepin-7-ylamino]-pyrimidin-4-ylamino}-cyclohexyl)-methanesulfonamide]
- IC50 [1, 3]: > 10000 nM
- IC50 [2, 4]: < 100 nM

Molecule: COc1cc2c(cc1Nc1ncc(Cl)c(Nc3ccccc3OCC#N)n1)CCN(CC(=O)N(C)C)CC2 [Example 1147, 2-{7-[5-Chloro-4-(2-cyanomethoxy-phenylamino)-pyrimidin-2-ylamino]-8-methoxy-1,2,4,5-tetrahydro-benzo[d]azepin-3-yl}-N,N-dimethyl-acetamide]
- IC50 [1, 5]: > 10000 nM
- IC50 [2, 6]: < 100 nM

Molecule: COc1cccnc1-c1ccccc1Nc1nc(Nc2ccc3c(c2)C(C)(C)CCC(=O)N3)ncc1Cl [Example 989, 7-{5-Chloro-4-[2-(3-methoxy-pyridin-2-yl)-phenylamino]-pyrimidin-2-ylamino}-5,5-dimethyl-1,3,4,5-tetrahydro-benzo[b]azepin-2-one]
- IC50 [1, 9]: 100 to 1000 nM
- IC50 [2, 10]: < 100 nM

Molecule: CNC(=O)c1ccccc1Nc1nc(Nc2ccc3c(c2Cl)C2CCC(C3)N2CCOC)ncc1Cl (stereo not drawn) [Example 87, 2-{5-Chloro-2-[3-chloro-12-(2-methoxy-ethyl)-12-aza-tricyclo[7.2.1.0*2,7*]dodeca-2(7),3,5-trien-4-ylamino]-pyrimidin-4-ylamino}-N-methyl-benzamide]
- IC50 [1, 3]: 100 to 1000 nM
- IC50 [2, 4]: < 100 nM

Molecule: CS(=O)(=O)N[C@@H]1CCCC[C@H]1Nc1nc(Nc2ccc3c(c2)CCC(=O)CC3)ncc1Cl [Example 174, N-{(1R,2R)-2-[5-Chloro-2-(7-oxo-6,7,8,9-tetrahydro-5H-benzocyclohepten-2-ylamino)-pyrimidin-4-ylamino]-cyclohexyl}-methanesulfonamide]
- IC50 [1, 3]: 100 to 1000 nM
- IC50 [2, 4]: < 100 nM

Molecule: CNS(=O)(=O)c1ccccc1Nc1nc(Nc2ccc3c(c2)C2CCC3CN(CC#N)C2)ncc1Cl (stereo not drawn) [Example 275, 2-[5-Chloro-2-(10-cyanomethyl-10-aza-tricyclo[6.3.2.0*2,7*]trideca-2,4,6-trien-4-ylamino)-pyrimidin-4-ylamino]-N-methyl-benzenesulfonamide]
- IC50 [1, 3]: < 100 nM
- IC50 [2, 4]: < 100 nM

Molecule: CCN1C(=O)CCCc2c1ccc(Nc1ncc(Cl)c(Nc3ccc(OC)cc3C(=O)NC)n1)c2OC [Example 607, 2-[5-Chloro-2-(1-ethyl-6-methoxy-2-oxo-2,3,4,5-tetrahydro-1H-benzo[b]azepin-7-ylamino)-pyrimidin-4-ylamino]-5-methoxy-N-methyl-benzamide]
- IC50 [1, 9]: 1000 to 10000 nM
- IC50 [2, 10]: < 100 nM

Molecule: C#CCNC(=O)c1ccccc1Nc1nc(Nc2ccc3c(c2)CCN(CCOC)CC3)ncc1Cl [Example 1387, 2-{5-Chloro-2-[3-(2-methoxy-ethyl)-2,3,4,5-tetrahydro-1H-benzo[d]azepin-7-ylamino]-pyrimidin-4-ylamino}-N-prop-2-ynyl-benzamide]
- IC50 [1, 5]: < 100 nM
- IC50 [2, 6]: < 100 nM

Molecule: COc1cc2c(cc1Nc1ncc(Cl)c(Nc3ccc(N4CC5CC4CO5)cc3OC)n1)CCN(CC(=O)N(C)C)CC2 (stereo not drawn) [Example 794, 2-(7-{5-Chloro-4-[2-methoxy-4-(2-oxa-5-aza-bicyclo[2.2.1]hept-5-yl)-phenylamino]-pyrimidin-2-ylamino}-8-methoxy-1,2,4,5-tetrahydro-benzo[d]azepin-3-yl)-N,N-dimethyl-acetamide]
- IC50 [1, 9]: > 10000 nM
- IC50 [2, 10]: < 100 nM

Molecule: 1-[5-Chloro-2-(3-dimethylcarbamoylmethyl-8-methoxy-2,3,4,5-tetrahydro-1H-benzo[d]azepin-7-ylamino)-pyrimidin-4-ylamino]-cyclopentanecarboxylic acid methylamide [Example 1203]
- IC50 [1, 5]: > 10000 nM
- IC50 [2, 6]: 100 to 1000 nM

Molecule: COc1cc2c(cc1Nc1ncc(Cl)c(N[C@@H]3[C@H](C(N)=O)[C@H]4C=C[C@@H]3C4)n1)CCN(CC(F)(F)F)CC2 (relative stereo) [Example 250, (2-exo, 3-exo)-3-{5-Chloro-2-[8-methoxy-3-(2,2,2-trifluoro-ethyl)-2,3,4,5-tetrahydro-1H-benzo[d]azepin-7-ylamino]-pyrimidin-4-ylamino}-bicyclo[2.2.1]hept-5-ene-2-carboxylic acid amide hydrochloride]
- IC50 [1, 3]: > 10000 nM
- IC50 [2, 4]: < 100 nM

Molecule: C#CCNC(=O)c1cccc(F)c1Nc1nc(Nc2ccc3c(c2)NC(=O)C(N)CC3(C)C)ncc1Cl (stereo not drawn) [Example 1280, 2-[2-(3-Amino-5,5-dimethyl-2-oxo-2,3,4,5-tetrahydro-1H-1-benzazepin-8-ylamino)-5-chloro-pyrimidin-4-ylamino]-3-fluoro-N-prop-2-ynyl-benzamide]
- IC50 [1, 5]: < 100 nM
- IC50 [2, 6]: < 100 nM

The next lines start with the values.

- IC50 [1, 7]: 1000 to 10000 nM
- IC50 [2, 8]: < 100 nM
Molecule: CCC(=O)OCCN1CCc2cc(Nc3ncc(Cl)c(Nc4ccccc4S(=O)(=O)N(C)C)n3)c(OC)cc2CC1 [Example 1546, Propionic acid 2-{7-[5-chloro-4-(2-dimethylsulfamoyl-phenylamino)-pyrimidin-2-ylamino]-8-methoxy-1,2,4,5-tetrahydro-3-benzazepin-3-yl}-ethyl ester]

- IC50 [1, 7]: 1000 to 10000 nM
- IC50 [2, 8]: 1000 to 10000 nM
Molecule: CNC(=O)c1sc(C(C)(C)C)cc1Nc1nc(Nc2ccc3c(c2)CCOC(=O)N3C)ncc1Cl [Example 1761, 5-tert-Butyl-3-[5-chloro-2-(5-methyl-6-oxo-5,6,8,9-tetrahydro-7-oxa-5-aza-benzocyclohepten-2-ylamino)-pyrimidin-4-ylamino]-thiophene-2-carboxylic acid methylamide]

- IC50 [1, 7]: 100 to 1000 nM
- IC50 [2, 8]: 1000 to 10000 nM
Molecule: CNC(=O)c1ccsc1Nc1nc(Nc2ccc3c(c2)NC(=O)CCC3)ncc1Cl [Example 1485, 2-[5-Chloro-2-(2-oxo-2,3,4,5-tetrahydro-1H-benzo[b]azepin-8-ylamino)-pyrimidin-4-ylamino]-thiophene-3-carboxylic acid methylamide]

- IC50 [1, 7]: > 10000 nM
- IC50 [2, 8]: > 10000 nM
Molecule: COC(=O)c1sc(-c2ccccc2)c(C)c1Nc1nc(Nc2ccc3c(c2)CCOC(=O)N3C)ncc1Cl [Example 1762, 3-[5-Chloro-2-(5-methyl-6-oxo-5,6,8,9-tetrahydro-7-oxa-5-aza-benzocyclohepten-2-ylamino)-pyrimidin-4-ylamino]-4-methyl-5-phenyl-thiophene-2-carboxylic acid methyl ester]

- IC50 [1, 5]: 100 to 1000 nM
- IC50 [2, 6]: 100 to 1000 nM
Molecule: COCCN1CCc2ccc(Nc3ncc(Cl)c(Nc4ccccc4C(=O)NCCN(C)C)n3)cc2CC1 [Example 1397, {5-Chloro-2-[3-(2-methoxy-ethyl)-2,3,4,5-tetrahydro-1H-benzo[d]azepin-7-ylamino]-pyrimidin-4-ylamino}-N-(2-dimethylamino-ethyl)-benzamide]

- IC50 [1, 7]: < 100 nM
- IC50 [2, 8]: < 100 nM
Molecule: CC(=O)NC1CC(C)(C)c2ccc(Nc3ncc(Cl)c(Nc4c(F)cccc4C(=O)NCC#N)n3)cc2NC1=O (stereo not drawn) [Example 1636, 2-[2-(3-Acetylamino-5,5-dimethyl-2-oxo-2,3,4,5-tetrahydro-1H-benzo[b]azepin-8-ylamino)-5-chloro-pyrimidin-4-ylamino]-N-cyanomethyl-3-fluoro-Benzamide]

- IC50 [1, 7]: 1000 to 10000 nM
- IC50 [2, 8]: < 100 nM
Molecule: COc1cc2c(cc1Nc1ncc(Cl)c(Nc3ccccc3S(=O)(=O)N(C)C)n1)CCN(CCN1CCOCC1)CC2 [Example 1522, 2-{5-Chloro-2-[8-methoxy-3-(2-morpholin-4-yl-ethyl)-2,3,4,5-tetrahydro-1H-3-benzazepin-7-ylamino]-pyrimidin-4-ylamino}-N,N-dimethyl-benzenesulfonamide]

- IC50 [1, 7]: < 100 nM
- IC50 [2, 8]: 1000 to 10000 nM
Molecule: CNC(=O)c1cccc(F)c1Nc1nc(Nc2ccc3c(c2)CN(C)C(=O)CC3)ncc1Cl [Example 1806, 3-Fluoro-2-[5-chloro-2-(2-methyl-3-oxo-2,3,4,5-tetrahydro-1H-benzo[c]azepin-8-ylamino)-pyrimidin-4-ylamino]-N-methyl-benzamide]
